Literature values, collected in patent US11807631B2, “Herboxidiene derivatives and uses thereof” (Purdue Research Foundation, priority 2017, dated 2023).

Test system: human normal fibroblast cell line, W1-38

## COC(C(C)O)C(C)C1OC1(C)CC(C)/C=C/C=C(\C)C1OC(CC(=O)O)CCC1C (stereo not shown) [Herboxidiene/GEX1A]
  cell cycle arrest: induces both G1 and G2/M cell cycle arrest
